Molecular target: T1, hTAS1R1 A302W/rTAS1R3 (UniProt Q7RTX1+Q923K1, A302W)
T1 construct: UniProtKB number Q7RTX1–1); The cDNA coding region of rTAS1R3 was synthesized with optimized-codon usage for human expression; expressed in transfected cells; host or cells: HEK293T/17
T1 sequence (Q7RTX1 21-841 A302W): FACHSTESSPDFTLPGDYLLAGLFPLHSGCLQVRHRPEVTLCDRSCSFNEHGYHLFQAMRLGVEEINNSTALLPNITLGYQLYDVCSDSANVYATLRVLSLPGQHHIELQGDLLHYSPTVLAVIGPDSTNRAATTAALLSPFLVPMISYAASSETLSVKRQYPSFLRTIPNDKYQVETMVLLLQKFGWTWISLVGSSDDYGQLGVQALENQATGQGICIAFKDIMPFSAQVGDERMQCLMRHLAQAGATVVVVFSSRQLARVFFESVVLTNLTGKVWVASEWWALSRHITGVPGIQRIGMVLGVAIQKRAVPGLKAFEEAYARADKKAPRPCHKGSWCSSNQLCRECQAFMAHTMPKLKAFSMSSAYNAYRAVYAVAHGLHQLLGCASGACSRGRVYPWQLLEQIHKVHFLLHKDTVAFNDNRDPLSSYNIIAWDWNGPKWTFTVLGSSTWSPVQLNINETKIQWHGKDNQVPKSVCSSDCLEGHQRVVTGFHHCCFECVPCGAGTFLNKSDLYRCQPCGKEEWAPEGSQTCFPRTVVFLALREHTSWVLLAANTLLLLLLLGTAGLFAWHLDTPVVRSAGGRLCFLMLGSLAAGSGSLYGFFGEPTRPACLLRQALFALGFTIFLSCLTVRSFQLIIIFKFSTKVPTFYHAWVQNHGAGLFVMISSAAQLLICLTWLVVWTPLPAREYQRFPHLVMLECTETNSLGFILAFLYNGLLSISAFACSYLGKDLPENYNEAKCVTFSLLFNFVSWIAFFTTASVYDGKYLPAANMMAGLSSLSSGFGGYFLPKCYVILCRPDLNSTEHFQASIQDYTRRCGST
T1 sequence (Q923K1 21-858): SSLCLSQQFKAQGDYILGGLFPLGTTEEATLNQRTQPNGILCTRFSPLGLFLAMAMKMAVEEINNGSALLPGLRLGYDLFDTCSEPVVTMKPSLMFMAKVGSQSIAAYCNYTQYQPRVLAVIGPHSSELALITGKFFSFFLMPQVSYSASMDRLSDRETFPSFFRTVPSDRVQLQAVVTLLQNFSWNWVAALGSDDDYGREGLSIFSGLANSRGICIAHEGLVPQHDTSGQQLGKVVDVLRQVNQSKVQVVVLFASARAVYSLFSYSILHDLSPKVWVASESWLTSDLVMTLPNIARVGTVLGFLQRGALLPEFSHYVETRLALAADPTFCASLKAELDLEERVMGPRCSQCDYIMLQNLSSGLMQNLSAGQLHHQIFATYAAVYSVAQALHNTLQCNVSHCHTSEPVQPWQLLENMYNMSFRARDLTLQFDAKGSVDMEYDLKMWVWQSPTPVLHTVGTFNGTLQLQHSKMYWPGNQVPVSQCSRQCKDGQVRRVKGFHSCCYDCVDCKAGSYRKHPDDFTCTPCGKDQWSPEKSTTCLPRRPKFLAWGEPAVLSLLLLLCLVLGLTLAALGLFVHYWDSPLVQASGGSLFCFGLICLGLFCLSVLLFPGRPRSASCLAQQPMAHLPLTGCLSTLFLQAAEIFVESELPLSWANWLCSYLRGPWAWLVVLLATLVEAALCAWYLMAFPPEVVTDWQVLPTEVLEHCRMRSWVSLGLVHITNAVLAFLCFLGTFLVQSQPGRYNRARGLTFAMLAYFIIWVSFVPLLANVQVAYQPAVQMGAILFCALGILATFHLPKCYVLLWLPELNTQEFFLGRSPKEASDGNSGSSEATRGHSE
Assay: Calcium assay, hTAS1R1 mutant co-expressed with rTAS1R3
Format: cell-based, human, rat
Description: Chimeric Gα proteins, such as Gα16Gust44, Gα16Gi3 or Gα15i2, are widely used in the functional expression of TAS1R receptors ([Backes et al., 2015]; [Suess et al., 2015]; [Toda et al., 2021], [Toda et al., 2013], [Toda et al., 2018]; [Zhang et al., 2008]). Chimeric Gα15i2 (([Toda et al., 2013]), Supplementary data) was generated by replacing the last five residues of the C-terminal tail of rat Gα15i2 (EINLL) (UniProt number G3V6N8; https://www.uniprot.org/uniprot/) with the counterpart sequence from human GNAI2 (DCGLF) (UniProt number P04899-1) and cloning into the pcDNA3.1/Hygro vector (Invitrogen, Thermo Fisher Scientific, Illkirch, France) between the HindIII and NotI restriction sites, resulting in the plasmid pcDNA3.1-Gα15i2. Chimeric Gα16Gust44 construct have already been reported ([Raliou et al., 2011]). Briefly, Gα16Gust44 was generated by replacing the C-terminal of Gα16 with the C-terminal 44 residues of gustducin. As previously described, hTAS1R1 was amplified from human fungiform papillae cDNA and cloned and inserted into pcDNA3 (Invitrogen), generating pcDNA3-TAS1R1-WT (wild-type) ([Raliou et al., 2011]). […] The cDNA coding region of rTAS1R3 was synthesized with optimized-codon usage for human expression (Genewiz) and was cloned and inserted into the mammalian pcDNA4/myc-HisA (Invitrogen) expression vector between the EcoRI and NotI restriction sites, resulting in the plasmid pcDNA4-rTAS1R3. […] The sequence integrity of all the plasmid constructs was verified via automated DNA sequencing (Genewiz).
The hTAS1R1 mutants were co-expressed with the rTAS1R3 subunit in HEK293 cells. […] As a control, the functionality of the mutated receptors was checked after stimulation with S807 (Fig. S8), which interacts with TAS1R1-TMD ([Zhang et al., 2008]).

SMILES	EC50 [mM]	Max ∆F/F0 (A302W, GSH)	R1 = mutant EC50/WT EC50 (A302W, GSH)	response to the agonist alone, vs WT (A302W)
N[C@@H](CCC(=O)N[C@@H](CS)C(=O)NCC(=O)O)C(=O)O [GSH, γ-L-glutamyl-L-cysteinyl-glycine]	5.32 ± 2.54	0.09 ± 0.01	2.1	
CCCC(CCC)NC(=O)c1ccc2c(c1)OCO2 [S807, N-(heptan-4-yl)benzo[d][1,3]dioxole-5-carboxamide, reference compound]				strongly affected
N[C@@H](CCC(=O)O)C(=O)O [L-Glu, L-glutamic acid, reference compound]				completely suppressed

From paper PMC12615753, “Glutathione as a taste modulator: molecular mechanisms of interaction with umami and sweet taste receptors” (Food Chemistry: Molecular Sciences, 2025)
